Source: paper PMC4425356, “An Extended Surface Loop on Toxoplasma gondii Apical Membrane Antigen 1 (AMA1) Governs Ligand Binding Selectivity” (PLoS ONE, 2015)
Entries after “also recorded” stand apart in the source; their conditions may differ. Read-outs that look alike come from different tables or passages of the source. Ends that are not written are not given here.

What was measured:
TgAMA1 = experiment: Isothermal titration calorimetry of TRX-fused RON2D3 peptides titrated into TgAMA1; assay type: binding, Toxoplasma gondii; conditions: ITC, 25 °C; for Kd / -TΔS / ΔG / Molar Ratio (RON2/AMA1) / ΔH: TgAMA1, TRX-fused peptides; for Molar Ratio (RON2/AMA1) / ΔH: representative of at least two
Description: (§1) For ITC experiments, TgAMA1 was produced and purified as previously reported. Thioredoxin fusions of TgRON2D3, TgRON2L1D3, TgRON2L2D3, EtRON2D3 and PfRON2D3 were produced in E. coli BL21 cells and purified by nickel-affinity and SEC.
(§2) Purified TgAMA1, TgAMA1ΔDIIloop, and TRX fusions of TgRON2D3, TgRON2L1D3 TgRON2L2D3, EtRON2D3, and PfRON2D3 were dialyzed against HBS at 4 °C. All ITC experiments were carried out at 25 °C on a MicroCal iTC200 instrument (GE Healthcare). […] Data were processed using Origin software (MicroCal) and the dissociation constants (Kd) were determined using a one-site model. Values are derived from a single experiment, but are representative of at least two independent experiments.

TgAMA1ΔDIIloop [1] = experiment: Isothermal titration calorimetry of TRX-fused RON2D3 peptides titrated into TgAMA1ΔDIIloop (DII loop replaced by Gly-Ser linker); assay type: binding, Toxoplasma gondii; conditions: for binding to TgAMA1ΔDIIloop (in words) / Kd / -TΔS / ΔG / Molar Ratio (RON2/AMA1) / ΔH: ITC, 25 °C; for binding to TgAMA1ΔDIIloop (in words) / -TΔS / ΔG / Molar Ratio (RON2/AMA1) / ΔH: HBS pH 7.5; for Kd / -TΔS / ΔG / Molar Ratio (RON2/AMA1) / ΔH: TgAMA1ΔDIIloop, TRX-fused peptides; for Kd: HBS (20 mM HEPES pH 7.5, 150 mM NaCl), one-site model, representative of at least two independent experiments; for Kd / Molar Ratio (RON2/AMA1) / ΔH: single experiment; for Molar Ratio (RON2/AMA1) / ΔH: representative of at least two
Excerpt: A sequence encoding the mature ectoplasmic region of TgAMA1 (amino acids 64 to 484, TGME49_255260 [24]) with the twenty residues of the DII loop disordered in the TgAMA1-TgRON2D3 co-structure replaced by a seven residue Gly-Ser linker (TgAMA1ΔDIIloop) was synthesized and subcloned into a modified pAcGP67b vector (Pharmingen) with a C-terminal thrombin cleavage site and hexahistidine tag. TgAMA1ΔDIIloop encoding virus for insect cell protein production was generated and amplified using established protocols. Following a 65 hr infection the supernatant was harvested, concentrated, and TgAMA1ΔDIIloop was purified by nickel batch binding as previously described. The hexahistidine tag was removed by thrombin cleavage and the protein was further purified by size exclusion chromatography (SEC) (Superdex 16/60 75) in HEPES buffered saline (HBS: 20 mM HEPES pH 7.5, 150 mM NaCl).
as §1, §2

[2] = target: TgAMA1ΔDIIloop (TgAMA1 with the mobile portion of the DII loop replaced with a short Gly-Ser linker) (Toxoplasma gondii) (UniProt B6KAM0); experiment: ITC; TgAMA1 or TgAMA1ΔDIIloop in the sample cell (10 to 16 μM for nanomolar affinity, 35 to 75 μM for micromolar affinity), TRX-fused peptides (110 to 180 μM or 360 to 1180 μM) added in 17 injections of 2 μL; 25 °C; HBS (20 mM HEPES pH 7.5, 150 mM NaCl); one-site model
TgAMA1 or TgAMA1ΔDIIloop = experiment: Isothermal titration calorimetry, TRX negative control; assay type: binding, Toxoplasma gondii; conditions: ITC, 25 °C, HBS pH 7.5
Description: as §2

[3] = target: Toxoplasma gondii apical membrane antigen 1 (TgAMA1) (Toxoplasma gondii); experiment: ITC; TgAMA1 or TgAMA1ΔDIIloop in the sample cell (10 to 16 μM for nanomolar affinity, 35 to 75 μM for micromolar affinity), TRX-fused peptides (110 to 180 μM or 360 to 1180 μM) added in 17 injections of 2 μL; 25 °C; HBS (20 mM HEPES pH 7.5, 150 mM NaCl); one-site model
TgAMA1ΔDIIloop [4] = experiment: Native gel electrophoresis of TgAMA1ΔDIIloop co-purified with EtRON2D3; assay type: binding, Toxoplasma gondii; conditions: 8–25% gradient native gel, HBS, Coomassie Brilliant Blue; sample co-purified with EtRON2D3
Excerpt: A sequence encoding a portion of EtRON2D3 (amino acids 1262 to 1297, ETH_00012760) was synthesized and subcloned into a modified pET32a vector (Novagen) incorporating N-terminal hexahistidine and thioredoxin (TRX) tags with a thrombin cleavage site. The fusion protein was produced in E. coli BL21 cells. For crystallization, EtRON2D3-TRX was cleaved to remove the fusion tags and co-purified with TgAMA1ΔDIIloop by SEC in HBS followed by anion exchange chromatography using a Source 30Q column (20 mM HEPES pH 8.0, 10 mM NaCl; elution gradient with 20 mM HEPES pH 8.0, 1 M NaCl) to remove residual TRX tag.
Purified TgAMA1ΔDIIloop and co-purified TgAMA1ΔDIIloop-EtRON2D3 protein samples in HBS were run on an 8–25% gradient native gel using the PhastGel system (GE Healthcare), and protein bands were visualized with Coomassie Brilliant Blue staining.

“TgRON2D3: RON2 domain 3 peptide of T. gondii, thioredoxin fusion produced in E. coli BL21 (DIVQHMEDIGGAPPVSCVTNEILGVTCAPQAIAKAT; cysteine pairing not given here; also: thioredoxin fusion, end not given here, His tag, end not given here)” was tested, and the “binding to TgAMA1 (in words)” value (TgAMA1; HBS pH 7.5) was “bound both TgRON2D3 and EtRON2D3 but only the former with high affinity”, the Kd (TgAMA1; HBS (20 mM HEPES pH 7.5, 150 mM NaCl), one-site model, single experiment, representative of at least two independent experiments, read-out: Kd) was 5.8 ± 2.8 nM and the “-TΔS” value (TgAMA1; HBS pH 7.5) was 5.9 kcal/mol. For the same substance, the ΔG (TgAMA1; HBS pH 7.5) was -11.2 kcal/mol, the “Molar Ratio (RON2/AMA1)” value (TgAMA1; HBS pH 7.5, single experiment) was 1.00 ± 0.01 and the ΔH (TgAMA1; HBS pH 7.5, single experiment) was -17.1 ± 0.2 kcal/mol. The “binding to TgAMA1ΔDIIloop (in words)” value (TgAMA1ΔDIIloop [1]) was “bound both TgRON2D3 and EtRON2D3 with high affinity”, the Kd (TgAMA1ΔDIIloop [1]) was 3.6 ± 3 nM and the “-TΔS” value (TgAMA1ΔDIIloop [1]) was 10.6 kcal/mol. The ΔG (TgAMA1ΔDIIloop [1]) was -11.6 kcal/mol, the “Molar Ratio (RON2/AMA1)” value (TgAMA1ΔDIIloop [1]) was 1.01 ± 0.01 and the ΔH (TgAMA1ΔDIIloop [1]) was -22.2 ± 0.2 kcal/mol.

“TgRON2L2D3 thioredoxin fusion (Toxoplasma gondii RON2L2 domain 3 peptide)” was tested, and the Kd [2] was 6000 nM and the stoichiometry N [2] was 1.

For “TRX: thioredoxin, injected as a negative control”, the “binding of TRX negative control” value (TgAMA1 or TgAMA1ΔDIIloop) was “no detectable binding”.

With “EtRON2D3-TRX (Eimeria tenella RON2 domain 3 peptide, thioredoxin fusion) (from UniProt U6KQJ2 1262-1297)” the Kd [3] was 2200 nM and the Kd [2] was less than 8 nM.

Work on “PfRON2D3 thioredoxin fusion (Plasmodium falciparum RON2 domain 3 peptide)” yielded a Kd [2] of 1400 nM and a stoichiometry N [2] of 1.

“TgRON2D3 thioredoxin fusion (Toxoplasma gondii RON2 domain 3 peptide) (from UniProt B6KV60 1297-1332)” gave a Kd [3] of less than 5.8 nM.

With “TgRON2L1D3 thioredoxin fusion (Toxoplasma gondii RON2L1 domain 3 peptide)” the Kd [2] was 46000 nM and the stoichiometry N [2] was 1.

With “EtRON2D3: a portion of EtRON2D3 (amino acids 1262 to 1297, ETH_00012760), Eimeria tenella RON2 peptide (thioredoxin-DITQHLNDSGLGPAVECLENLVVGPVCPAAVVAPAV; not fully specified (bridges); also: disulfide partially formed)” the “binding to TgAMA1 (in words)” value (TgAMA1; HBS pH 7.5) was “bound both TgRON2D3 and EtRON2D3 but only the former with high affinity”, the “binding to TgAMA1 (in words)” value (TgAMA1; HBS pH 7.5, listed as EtRON2) was “showed only weak binding to TgAMA1” and the “-TΔS” value (TgAMA1; HBS pH 7.5) was -3.0 kcal/mol. For the same substance, the ΔG (TgAMA1; HBS pH 7.5) was -7.7 kcal/mol, the Kd (TgAMA1; HBS pH 7.5, rounded value, read-out: affinity (Kd)) was 2200 nM and the “Molar Ratio (RON2/AMA1)” value (TgAMA1; HBS pH 7.5, single experiment) was 1.17 ± 0.02. The ΔH (TgAMA1; HBS pH 7.5, single experiment) was -4.7 ± 0.1 kcal/mol, the “native PAGE migration / retention on TgAMA1ΔDIIloop” value (TgAMA1ΔDIIloop [4]) was “altered migration for the sample co-purified with EtRON2D3” and the “binding to TgAMA1ΔDIIloop (in words)” value (TgAMA1ΔDIIloop [1]) was “bound both TgRON2D3 and EtRON2D3 with high affinity; also recorded: significantly tighter binding to TgAMA1ΔDIIloop relative to TgAMA1”. The “binding to TgAMA1ΔDIIloop (in words)” value (TgAMA1ΔDIIloop [1]; listed as EtRON2) was “bound with high affinity to TgAMA1ΔDIIloop”, the Kd (TgAMA1ΔDIIloop [1]) was 8 ± 3.1 nM and the “-TΔS” value (TgAMA1ΔDIIloop [1]) was -0.1 kcal/mol. The ΔG (TgAMA1ΔDIIloop [1]) was -11.1 kcal/mol, the “Molar Ratio (RON2/AMA1)” value (TgAMA1ΔDIIloop [1]) was 0.96 ± 0.01 and the ΔH (TgAMA1ΔDIIloop [1]) was -11.0 ± 0.1 kcal/mol. For the same substance, the “fold tighter binding to TgAMA1ΔDIIloop relative to TgAMA1” value (TgAMA1ΔDIIloop [1]; ratio of ITC Kd, TgAMA1 (2.2 μM) vs TgAMA1ΔDIIloop (8.0 nM)) was “approximately 275 fold”.
